This passage reports dTm results from publication PMC12136037, “Type II kinase inhibitors that target Parkinson’s disease–associated LRRK2” (Science Advances, 2025).

What all share (experiment): DSF 100 kinase selectivity screen;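 further: compound tested at 20 µM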
Assay type in all cases: binding

The target in assay [1] is T1, ~100 representative kinases (Homo sapiens, UniProt Q15418).
T1 construct: Recombinant protein kinase domains with a concentration of 2 μM
Particulars: Protein RPS6KA1; DSF; average of three replicates. An outline of the steps: (§1)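 Each kinase domain, at 2 μM, is mixed with 20 μM test compound and SYPRO Orange in Hepes (20 mM, pH 7.5) with 500 mM NaCl. Temperature is then raised at 3°C/min and fluorescence-monitored unfolding yields the melting temperature change, ΔTm in degrees Celsius.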

Assay [2] has as its target T2, ~100 representative kinases (Homo sapiens, UniProt Q96PY6).
T2 construct: Recombinant protein kinase domains with a concentration of 2 μM
T2 sequence (Q96PY6 1-1258): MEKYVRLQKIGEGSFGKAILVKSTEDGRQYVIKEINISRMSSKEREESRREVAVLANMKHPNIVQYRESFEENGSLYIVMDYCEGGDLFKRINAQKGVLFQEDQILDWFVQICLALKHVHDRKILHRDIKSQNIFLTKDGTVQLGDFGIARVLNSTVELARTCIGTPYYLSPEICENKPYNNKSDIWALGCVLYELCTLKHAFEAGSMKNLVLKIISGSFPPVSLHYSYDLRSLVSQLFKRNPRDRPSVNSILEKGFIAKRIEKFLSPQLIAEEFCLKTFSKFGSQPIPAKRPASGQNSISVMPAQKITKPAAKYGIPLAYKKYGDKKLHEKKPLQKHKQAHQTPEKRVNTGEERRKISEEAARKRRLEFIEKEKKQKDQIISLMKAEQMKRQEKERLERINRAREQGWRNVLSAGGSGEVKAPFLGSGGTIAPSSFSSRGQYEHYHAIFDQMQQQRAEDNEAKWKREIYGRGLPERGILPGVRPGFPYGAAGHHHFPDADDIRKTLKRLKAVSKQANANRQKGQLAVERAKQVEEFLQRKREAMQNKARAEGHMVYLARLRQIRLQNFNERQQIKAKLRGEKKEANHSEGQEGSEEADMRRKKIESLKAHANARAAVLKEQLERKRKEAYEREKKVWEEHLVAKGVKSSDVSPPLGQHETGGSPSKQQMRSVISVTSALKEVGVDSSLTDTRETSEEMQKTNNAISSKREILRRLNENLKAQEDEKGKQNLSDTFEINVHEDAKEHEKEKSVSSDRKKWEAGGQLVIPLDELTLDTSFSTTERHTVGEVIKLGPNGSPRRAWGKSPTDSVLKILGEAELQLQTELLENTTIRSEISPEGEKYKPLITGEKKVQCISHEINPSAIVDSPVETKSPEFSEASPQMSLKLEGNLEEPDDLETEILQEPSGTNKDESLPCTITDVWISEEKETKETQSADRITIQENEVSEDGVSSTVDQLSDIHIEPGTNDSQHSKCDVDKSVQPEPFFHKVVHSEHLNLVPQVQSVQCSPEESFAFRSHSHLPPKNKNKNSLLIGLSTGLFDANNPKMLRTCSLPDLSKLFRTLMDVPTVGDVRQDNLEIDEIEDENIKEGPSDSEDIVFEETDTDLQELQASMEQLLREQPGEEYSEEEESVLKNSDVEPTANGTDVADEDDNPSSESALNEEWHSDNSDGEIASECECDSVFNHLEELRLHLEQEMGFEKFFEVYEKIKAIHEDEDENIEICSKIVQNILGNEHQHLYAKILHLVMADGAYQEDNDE
To be noted: protein NEK1; average of three replicates. A digest of the protocol:
as §1

In assay [3] the target is T3, ~100 representative kinases (Homo sapiens, UniProt O96017).
T3 construct: Recombinant protein kinase domains with a concentration of 2 μM
To be noted: Protein CHEK2; average of three replicates. A digest of the protocol:
as §1

For assay [4], the target named is T4, ~100 representative kinases (Homo sapiens, UniProt P48730).
T4 construct: Recombinant protein kinase domains with a concentration of 2 μM
Particulars: Protein CSNK1D; average of three replicates. A digest of the protocol:
as §1

Assay [5] addresses T5, ~100 representative kinases (Homo sapiens, UniProt P54764).
T5 construct: Recombinant protein kinase domains with a concentration of 2 μM
Particulars: Protein EPHA4; average of three replicates. A digest of the protocol: as §1

Assay [6] addresses T6, ~100 representative kinases (Homo sapiens, UniProt P53355).
T6 construct: Recombinant protein kinase domains with a concentration of 2 μM
To be noted: Protein DAPK1; average of three replicates. An outline of the steps:
as §1

Assay [7] has as its target T7, ~100 representative kinases (Homo sapiens, UniProt P07332).
T7 construct: Recombinant protein kinase domains with a concentration of 2 μM
To be noted: protein FESA; average of three replicates. An outline of the steps:
as §1

Assay [8] addresses T8, ~100 representative kinases (Homo sapiens, UniProt P49759).
T8 construct: Recombinant protein kinase domains with a concentration of 2 μM
Particulars: Protein CLK1; average of three replicates. A digest of the protocol: as §1

Assay [9] deals with T9, ~100 representative kinases (Homo sapiens, UniProt P15735).
T9 construct: Recombinant protein kinase domains with a concentration of 2 μM
T9 sequence (P15735 1-406): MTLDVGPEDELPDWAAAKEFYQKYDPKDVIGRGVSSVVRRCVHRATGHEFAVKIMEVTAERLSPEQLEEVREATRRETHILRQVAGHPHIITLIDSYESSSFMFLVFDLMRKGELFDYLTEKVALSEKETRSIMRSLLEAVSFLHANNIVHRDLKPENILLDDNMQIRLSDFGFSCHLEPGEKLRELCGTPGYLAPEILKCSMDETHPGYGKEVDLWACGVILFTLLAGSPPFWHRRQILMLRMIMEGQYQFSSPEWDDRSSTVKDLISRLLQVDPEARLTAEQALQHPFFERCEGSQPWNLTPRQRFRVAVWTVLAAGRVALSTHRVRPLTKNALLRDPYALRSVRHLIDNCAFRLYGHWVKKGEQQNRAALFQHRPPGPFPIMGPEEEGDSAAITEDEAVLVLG
Particulars: protein PHKG2; average of three replicates. A digest of the protocol:
as §1

T8 sequence (P49759 whole entry, the tested form may be a part): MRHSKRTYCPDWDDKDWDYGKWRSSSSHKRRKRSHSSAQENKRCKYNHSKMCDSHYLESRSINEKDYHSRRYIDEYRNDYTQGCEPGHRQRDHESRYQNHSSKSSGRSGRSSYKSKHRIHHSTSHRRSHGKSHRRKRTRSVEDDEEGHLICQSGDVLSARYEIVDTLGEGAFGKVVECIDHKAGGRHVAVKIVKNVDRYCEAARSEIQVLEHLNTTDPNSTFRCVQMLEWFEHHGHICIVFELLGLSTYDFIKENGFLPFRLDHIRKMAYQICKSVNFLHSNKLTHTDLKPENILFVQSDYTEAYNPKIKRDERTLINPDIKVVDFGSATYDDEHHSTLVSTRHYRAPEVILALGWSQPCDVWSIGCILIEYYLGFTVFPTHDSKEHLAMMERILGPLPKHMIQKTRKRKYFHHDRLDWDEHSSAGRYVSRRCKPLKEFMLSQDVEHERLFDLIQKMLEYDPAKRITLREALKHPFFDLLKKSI
T4 sequence (P48730 whole entry, the tested form may be a part): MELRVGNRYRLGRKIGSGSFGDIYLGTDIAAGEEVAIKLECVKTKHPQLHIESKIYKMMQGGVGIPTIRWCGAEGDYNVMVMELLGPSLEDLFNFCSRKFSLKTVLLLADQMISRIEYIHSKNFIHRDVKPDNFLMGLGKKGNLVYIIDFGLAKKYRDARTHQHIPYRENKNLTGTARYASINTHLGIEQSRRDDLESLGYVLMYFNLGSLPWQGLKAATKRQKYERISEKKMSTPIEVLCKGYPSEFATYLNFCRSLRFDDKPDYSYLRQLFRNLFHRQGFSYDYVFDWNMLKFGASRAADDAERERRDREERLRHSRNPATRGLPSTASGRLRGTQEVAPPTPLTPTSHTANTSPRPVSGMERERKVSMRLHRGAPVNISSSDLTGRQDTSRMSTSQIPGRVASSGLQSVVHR
T6 sequence (P53355 whole entry, the tested form may be a part): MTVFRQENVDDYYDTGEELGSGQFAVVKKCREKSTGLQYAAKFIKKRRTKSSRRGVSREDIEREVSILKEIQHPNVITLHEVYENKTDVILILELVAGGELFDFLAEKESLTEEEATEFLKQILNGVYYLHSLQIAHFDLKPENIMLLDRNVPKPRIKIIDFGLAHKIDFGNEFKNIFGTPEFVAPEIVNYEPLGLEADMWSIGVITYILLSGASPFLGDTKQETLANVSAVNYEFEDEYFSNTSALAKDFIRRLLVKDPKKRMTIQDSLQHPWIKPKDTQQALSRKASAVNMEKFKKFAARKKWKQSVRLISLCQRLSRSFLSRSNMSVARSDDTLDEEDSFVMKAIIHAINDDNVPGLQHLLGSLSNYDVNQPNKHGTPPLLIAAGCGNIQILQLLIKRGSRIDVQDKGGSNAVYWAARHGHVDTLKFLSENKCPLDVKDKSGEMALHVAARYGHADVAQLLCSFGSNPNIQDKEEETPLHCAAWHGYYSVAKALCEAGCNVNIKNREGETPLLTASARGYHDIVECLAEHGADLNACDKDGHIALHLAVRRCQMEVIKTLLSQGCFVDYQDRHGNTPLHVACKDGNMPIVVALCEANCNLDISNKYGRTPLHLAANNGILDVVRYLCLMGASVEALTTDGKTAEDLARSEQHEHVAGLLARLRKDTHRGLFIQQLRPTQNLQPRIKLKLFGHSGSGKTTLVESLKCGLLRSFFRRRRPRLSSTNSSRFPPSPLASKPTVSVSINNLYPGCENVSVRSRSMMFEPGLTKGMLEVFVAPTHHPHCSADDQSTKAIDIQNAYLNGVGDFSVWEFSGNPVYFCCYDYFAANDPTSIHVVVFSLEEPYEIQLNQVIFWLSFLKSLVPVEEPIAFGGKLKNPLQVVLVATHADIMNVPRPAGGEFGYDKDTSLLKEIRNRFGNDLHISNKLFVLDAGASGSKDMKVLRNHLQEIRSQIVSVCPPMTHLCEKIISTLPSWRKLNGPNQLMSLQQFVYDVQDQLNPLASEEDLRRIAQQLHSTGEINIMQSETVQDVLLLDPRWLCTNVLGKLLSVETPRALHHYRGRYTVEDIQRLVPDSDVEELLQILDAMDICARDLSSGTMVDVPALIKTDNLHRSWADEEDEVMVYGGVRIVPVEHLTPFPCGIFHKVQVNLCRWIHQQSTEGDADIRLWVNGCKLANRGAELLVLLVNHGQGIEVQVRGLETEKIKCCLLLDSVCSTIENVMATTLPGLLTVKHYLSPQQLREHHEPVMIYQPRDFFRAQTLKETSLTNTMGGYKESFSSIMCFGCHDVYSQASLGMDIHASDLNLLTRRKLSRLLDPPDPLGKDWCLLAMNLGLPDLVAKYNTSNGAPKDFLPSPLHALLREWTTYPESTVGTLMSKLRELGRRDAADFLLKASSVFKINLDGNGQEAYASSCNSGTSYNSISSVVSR
T7 sequence (P07332 whole entry, the tested form may be a part): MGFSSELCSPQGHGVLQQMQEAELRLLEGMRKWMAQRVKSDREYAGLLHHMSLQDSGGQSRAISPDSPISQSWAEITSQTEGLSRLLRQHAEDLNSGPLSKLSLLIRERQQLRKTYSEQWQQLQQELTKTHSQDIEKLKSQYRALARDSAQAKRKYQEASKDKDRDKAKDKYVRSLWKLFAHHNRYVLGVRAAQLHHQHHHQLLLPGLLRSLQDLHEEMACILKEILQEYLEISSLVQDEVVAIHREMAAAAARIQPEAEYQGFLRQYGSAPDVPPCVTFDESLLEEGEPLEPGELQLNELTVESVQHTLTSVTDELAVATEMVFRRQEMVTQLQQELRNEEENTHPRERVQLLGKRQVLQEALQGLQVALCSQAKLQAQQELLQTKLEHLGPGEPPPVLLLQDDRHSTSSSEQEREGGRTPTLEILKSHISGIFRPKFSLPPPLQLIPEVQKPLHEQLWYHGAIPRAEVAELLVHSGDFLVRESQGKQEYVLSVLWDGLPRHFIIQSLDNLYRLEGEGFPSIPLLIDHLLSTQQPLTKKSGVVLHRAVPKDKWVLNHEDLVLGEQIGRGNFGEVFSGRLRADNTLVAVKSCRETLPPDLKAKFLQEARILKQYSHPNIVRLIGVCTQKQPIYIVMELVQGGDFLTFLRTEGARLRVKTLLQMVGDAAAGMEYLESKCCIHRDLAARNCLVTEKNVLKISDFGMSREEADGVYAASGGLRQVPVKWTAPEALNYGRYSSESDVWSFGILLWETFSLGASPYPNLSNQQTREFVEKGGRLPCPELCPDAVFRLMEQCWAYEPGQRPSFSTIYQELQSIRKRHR
T3 sequence (O96017 whole entry, the tested form may be a part): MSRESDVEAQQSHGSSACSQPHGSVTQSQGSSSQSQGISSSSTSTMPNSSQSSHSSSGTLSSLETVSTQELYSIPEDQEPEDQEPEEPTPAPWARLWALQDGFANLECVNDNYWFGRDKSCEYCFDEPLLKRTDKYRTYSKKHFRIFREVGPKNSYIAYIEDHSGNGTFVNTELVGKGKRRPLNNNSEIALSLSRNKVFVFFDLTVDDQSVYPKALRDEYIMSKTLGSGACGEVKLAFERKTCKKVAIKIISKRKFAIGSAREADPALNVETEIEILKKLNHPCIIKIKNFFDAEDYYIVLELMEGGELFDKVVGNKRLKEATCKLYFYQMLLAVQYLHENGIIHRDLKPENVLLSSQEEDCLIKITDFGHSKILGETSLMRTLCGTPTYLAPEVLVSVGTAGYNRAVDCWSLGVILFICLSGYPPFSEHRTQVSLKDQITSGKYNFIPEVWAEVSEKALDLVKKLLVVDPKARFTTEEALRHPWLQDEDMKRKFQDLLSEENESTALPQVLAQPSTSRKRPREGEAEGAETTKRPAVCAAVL
T5 sequence (P54764 20-986): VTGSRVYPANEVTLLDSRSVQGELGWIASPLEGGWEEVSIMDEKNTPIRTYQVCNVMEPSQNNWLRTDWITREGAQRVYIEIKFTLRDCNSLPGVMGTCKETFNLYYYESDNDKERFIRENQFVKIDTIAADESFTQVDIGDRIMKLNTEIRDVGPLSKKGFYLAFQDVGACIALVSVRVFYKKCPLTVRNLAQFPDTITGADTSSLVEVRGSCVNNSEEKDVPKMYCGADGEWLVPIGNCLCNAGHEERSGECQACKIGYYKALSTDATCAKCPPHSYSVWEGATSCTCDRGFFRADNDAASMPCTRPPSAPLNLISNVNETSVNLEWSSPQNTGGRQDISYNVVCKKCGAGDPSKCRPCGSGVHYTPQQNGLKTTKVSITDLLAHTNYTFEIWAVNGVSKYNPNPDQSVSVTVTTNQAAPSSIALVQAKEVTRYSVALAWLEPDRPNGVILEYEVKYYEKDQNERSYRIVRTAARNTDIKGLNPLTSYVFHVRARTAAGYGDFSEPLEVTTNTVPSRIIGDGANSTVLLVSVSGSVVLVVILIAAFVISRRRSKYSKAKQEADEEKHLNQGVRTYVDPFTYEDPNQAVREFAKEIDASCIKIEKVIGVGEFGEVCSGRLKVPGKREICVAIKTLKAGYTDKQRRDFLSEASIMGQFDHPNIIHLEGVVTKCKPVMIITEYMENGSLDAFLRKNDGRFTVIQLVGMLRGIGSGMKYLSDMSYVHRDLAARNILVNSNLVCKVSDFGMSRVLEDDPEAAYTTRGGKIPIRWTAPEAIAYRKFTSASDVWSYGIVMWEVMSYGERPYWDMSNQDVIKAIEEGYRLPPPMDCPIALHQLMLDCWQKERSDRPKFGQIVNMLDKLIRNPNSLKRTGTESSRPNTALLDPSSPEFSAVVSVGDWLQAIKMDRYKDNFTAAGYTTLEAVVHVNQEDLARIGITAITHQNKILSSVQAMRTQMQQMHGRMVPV

Turning to `O=C(Nc1cccc(-c2c[nH]c3ncnc(N4CCOCC4)c23)c1)C1(C(=O)Nc2ccc(F)c(Cl)c2)CC1` [Compound 18], the dTm in [1] is reported as 0.70 K; in [2], -0.32 K; in [3] it was 5.34 K; in assay [4], 3.14 K; in [5], 1.94 K; in assay [6], -0.23 K. For the same molecule, the dTm in [7] is listed as 6.93 K; in [8], 9.40 K; in assay [9] it was 3.01 K.
On to `CCc1ccc(NC(=O)C2(C(=O)Nc3cccc(-c4c[nH]c5ncnc(N6CCOCC6)c45)c3)CC2)cc1` [Compound 15], for which the dTm in assay [1] is reported as 0.29 K; in [2], 0.19 K; in assay [3], 6.14 K; in [4] it was 1.30 K; in assay [5], 2.16 K; in [6] it was -0.75 K. In addition, the dTm in assay [7] was determined as 4.64 K; in [8], 6.65 K; in [9], 0.76 K.
In the case of `CCNc1nc(Nc2cc(F)c(C(=O)N3CCOCC3)cc2OC)ncc1C(F)(F)F` [GNE-7915], the dTm in assay [1] was 0.64 K; in assay [2] it was 0.68 K; in assay [3] it was 0.72 K; in assay [4] it was 1.81 K; in assay [5], 0.0738 K; in assay [6], 1.29 K. In addition, the values for the dTm in assay [7], in assay [8] and in [9] were 2.48 K, 5.28 K and 1.11 K, respectively.
Consider `O=C(Nc1cccc(-c2c[nH]c3ncnc(N4CCOCC4)c23)c1)c1cccn(-c2ccc(F)cc2)c1=O` [Compound 4], for which the dTm in assay [1] is on record as -0.19 K; in assay [2], -0.47 K; in [3], 3.03 K; in [4], 5.34 K; in assay [5], 2.61 K; in [6], -0.50 K. For the same molecule, the dTm in assay [7] is 6.45 K; in [8], 9.53 K; in [9], 0.20 K.
Turning to `Cc1ccc(C(=O)Nc2ccc(CN3CCN(C)CC3)c(C(F)(F)F)c2)cc1C#Cc1cnc2[nH]ncc2c1` [GZD-824, reference compound], the dTm was 9.39 K in [1]; 1.45 K in assay [2]; 5.84 K in [3]; 1.29 K in assay [4]; 15.22 K in [5]; 0.59 K in assay [6]. Besides, the dTm in assay [8] was 7.80 K; in assay [9], -0.11 K.
Regarding `O=C(Nc1ccccc1)C1(C(=O)Nc2cccc(-c3c[nH]c4ncnc(N5CCOCC5)c34)c2)CC1` [Compound 12], the dTm in assay [1] is given as 0.56 K; in [2] it was 0.33 K; in assay [3] it was 3.05 K; in assay [4], 1.61 K; in assay [5] it was 1.72 K; in assay [6] it was 0.18 K. Also, the results for the dTm in [7], in assay [8] and in assay [9] were 6.39 K, 9.52 K and 1.25 K, respectively.
As for `Cc1ccc(C(=O)Nc2ccc(CN3CCN(C)CC3)c(C(F)(F)F)c2)cc1C#Cc1c[nH]c2ncnc(N3CCOCC3)c12` [Compound 1], the dTm in assay [1] was 2.57 K; in assay [2], -0.11 K; in assay [3], 15.46 K; in assay [4] it was 0.0454 K; in assay [5], 4.12 K; in assay [6] it was 0.30 K. Besides, the dTm in [7] is given as 3.82 K; in assay [8] it was 8.76 K; in assay [9], -0.17 K.
In the case of `Cc1cc(F)ccc1NC(=O)C1(C(=O)Nc2cccc(-c3c[nH]c4ncnc(N5CCOCC5)c34)c2)CC1` [Compound 24], the dTm in assay [1] was 0.19 K; in assay [2], -0.14 K; in assay [3] it was 2.66 K; in [4] it was 1.47 K; in assay [5] it was 0.68 K; in assay [6] it was -1.06 K. Moreover, the dTm in assay [7] is reported as 4.33 K; in assay [8] it was 5.49 K; in assay [9], -0.00698 K.
`O=C(Nc1cc(F)cc(Br)c1)C1(C(=O)Nc2cccc(-c3c[nH]c4ncnc(N5CCOCC5)c34)c2)CC1` [Compound 27]: the dTm in assay [1] was 0.00 K; in assay [2] it was -1.82 K; in assay [3] it was 1.74 K; in assay [4], -0.55 K; in [5] it was 1.53 K; in [6] it was -3.19 K. Further, the dTm worked out at 3.58 K in assay [7], 7.78 K in assay [8] and 0.85 K in assay [9].
On to `O=C(Nc1ccc(Cl)cc1)C1(C(=O)Nc2cccc(-c3c[nH]c4ncnc(N5CCOCC5)c34)c2)CC1` [Compound 13], for which the dTm in assay [1] is given as -0.42 K; in assay [2], 0.54 K; in assay [3], 5.52 K; in assay [4], 2.99 K; in [5] it was 4.09 K; in assay [6], 0.12 K. In addition, the values for the dTm in assay [7], in assay [8] and in assay [9] were 8.66 K, 9.39 K and 3.23 K, respectively.
For the molecule `COc1cc(S(C)(=O)=O)ccc1Nc1nc(N(C)C)c2c(Cl)c[nH]c2n1` [Compound 37], the dTm is on record as 0.36 K in assay [1]; 0.73 K in assay [2]; 7.39 K in assay [3]; 2.29 K in assay [4]; -0.37 K in assay [5]; 0.93 K in assay [6]. Besides, the dTm in assay [7] was 2.13 K; in assay [8] it was 5.62 K; in assay [9] it was 3.65 K.
For the molecule `CNC(=O)c1cc(Oc2ccc(NC(=O)Nc3cc(C(C)(C)C)nn3-c3ccc4ncccc4c3)c(F)c2)ccn1` [Rebastinib, reference compound], the dTm in [1] is listed as 1.31 K; in assay [2] it was 2.10 K; in [3], 10.49 K; in assay [4] it was -1.01 K; in assay [5], 15.87 K; in assay [6], -1.01 K. Moreover, the dTm in assay [7] is reported as 7.16 K; in assay [8], 15.99 K.
Consider `CN[C@@H]1C[C@H]2O[C@@](C)([C@@H]1OC)n1c3ccccc3c3c4c(c5c6ccccc6n2c5c31)C(=O)NC4` [Staurosporine], for which the values for the dTm in assay [4], in [5] and in assay [6] were 2.05 K, 6.68 K and 9.84 K, respectively.
Take `Cc1ccc(C(=O)Nc2ccc(CN3CCN(C)CC3)c(C(F)(F)F)c2)cc1C#Cc1cnc2cccnn12` [Ponatinib, reference compound]: the dTm in [1] was 9.86 K; in [2] it was 0.42 K.
